Experiments:
Test in all cases: relative viability (nuclei count vs DMSO), 5 days (fraction); higher = more cells survive
ChaGo-K-1 = system: ChaGo-K-1
Outline: (§1)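 Lung cancer cell lines were pin-tool dosed in 1536-well plates on the day after seeding, with either a lone drug or a fixed anchor-drug dose plus five library-drug doses (not always all listed) in √10 steps. Nuclei were counted on 4× images after 5 days. Relative viability is the ratio of treated-well to vehicle-well nuclei counts, with each value a median of duplicate plates.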

EKVX = system: EKVX
Outline: as §1

EMC-BAC-2 = system: EMC-BAC-2
Outline: as §1

H3255 = system: H3255
Outline: as §1

HARA = system: HARA
Outline: as §1

HCC-15 = system: HCC-15
Outline: as §1

HCC-827 = system: HCC-827
Outline: as §1

LC-2-ad = system: LC-2-ad
Outline: as §1

LCLC-97TM1 = system: LCLC-97TM1
Outline: as §1

LU99A = system: LU99A
Outline: as §1

NCI-H1437 = system: NCI-H1437
Outline: as §1

NCI-H1792 = system: NCI-H1792
Outline: as §1

NCI-H1793 = system: NCI-H1793
Outline: as §1

NCI-H1915 = system: NCI-H1915
Outline: as §1

NCI-H1944 = system: NCI-H1944
Outline: as §1

NCI-H2126 = system: NCI-H2126
Outline: as §1

NCI-H23 = system: NCI-H23
Outline: as §1

NCI-H322M = system: NCI-H322M
Outline: as §1

NCI-H441 = system: NCI-H441
Outline: as §1

NCI-H460 = system: NCI-H460
Outline: as §1

NCI-H661 = system: NCI-H661
Outline: as §1

PC-3 [JPC-3] = system: PC-3 [JPC-3]
Outline: as §1

SK-LU-1 = system: SK-LU-1
Outline: as §1

Q: `O=C(O)CCCCC(CCSCc1ccccc1)SCc1ccccc1` (stereo not drawn) [CPI-613] + Nc1nc2[nH]cc(CCc3ccc(C(=O)N[C@@H](CCC(=O)O)C(=O)O)cc3)c2c(=O)[nH]1 [Pemetrexed] (partner 0.2 µM) was tested. Which relative viability (ChaGo-K-1; first compound 5 µM) did it give?
A: 0.269

Q: And the relative viability (ChaGo-K-1; first compound 15.81 µM)?
A: 0.261

Q: What about the relative viability (ChaGo-K-1; first compound 50 µM) of the same compound?
A: 0.264

Q: And the relative viability (ChaGo-K-1; first compound 158.11 µM)?
A: 0.248

Q: What about the relative viability (ChaGo-K-1; first compound 500 µM) of the same compound?
A: 0.187

Q: And the relative viability (EKVX; first compound 5 µM)?
A: 0.373

Q: What about the relative viability (EKVX; first compound 15.81 µM) of the same compound?
A: 0.355

Q: What about the relative viability (EKVX; first compound 50 µM) of the same compound?
A: 0.306

Q: What about the relative viability (EKVX; first compound 500 µM) of the same compound?
A: 0.388

Q: What about the relative viability (EMC-BAC-2; first compound 5 µM) of the same compound?
A: 0.435

Q: What about the relative viability (EMC-BAC-2; first compound 15.81 µM) of the same compound?
A: 0.409

Q: What about the relative viability (EMC-BAC-2; first compound 50 µM) of the same compound?
A: 0.456

Q: And the relative viability (EMC-BAC-2; first compound 158.11 µM)?
A: 0.461

Q: What about the relative viability (EMC-BAC-2; first compound 500 µM) of the same compound?
A: 0.349

Q: What about the relative viability (H3255; first compound 5 µM) of the same compound?
A: 0.543

Q: What about the relative viability (H3255; first compound 15.81 µM) of the same compound?
A: 0.54

Q: What about the relative viability (H3255; first compound 50 µM) of the same compound?
A: 0.543

Q: What about the relative viability (H3255; first compound 158.11 µM) of the same compound?
A: 0.534

Q: And the relative viability (H3255; first compound 500 µM)?
A: 0.523

Q: And the relative viability (HARA; first compound 5 µM)?
A: 0.26

Q: And the relative viability (HARA; first compound 15.81 µM)?
A: 0.229

Q: And the relative viability (HARA; first compound 50 µM)?
A: 0.236

Q: And the relative viability (HARA; first compound 158.11 µM)?
A: 0.269

Q: And the relative viability (HARA; first compound 500 µM)?
A: 0.0403

Q: What about the relative viability (HCC-15; first compound 5 µM) of the same compound?
A: 0.231

Q: What about the relative viability (HCC-15; first compound 15.81 µM) of the same compound?
A: 0.227

Q: And the relative viability (HCC-15; first compound 50 µM)?
A: 0.221

Q: What about the relative viability (HCC-15; first compound 158.11 µM) of the same compound?
A: 0.155

Q: What about the relative viability (HCC-15; first compound 500 µM) of the same compound?
A: 0.0248

Q: What about the relative viability (HCC-827; first compound 5 µM) of the same compound?
A: 0.251

Q: And the relative viability (HCC-827; first compound 15.81 µM)?
A: 0.268

Q: What about the relative viability (HCC-827; first compound 50 µM) of the same compound?
A: 0.276

Q: What about the relative viability (HCC-827; first compound 158.11 µM) of the same compound?
A: 0.267

Q: And the relative viability (HCC-827; first compound 500 µM)?
A: 0.273

Q: What about the relative viability (LC-2-ad; first compound 5 µM) of the same compound?
A: 0.256

Q: What about the relative viability (LC-2-ad; first compound 15.81 µM) of the same compound?
A: 0.275

Q: And the relative viability (LC-2-ad; first compound 50 µM)?
A: 0.254

Q: What about the relative viability (LC-2-ad; first compound 158.11 µM) of the same compound?
A: 0.116

Q: What about the relative viability (LC-2-ad; first compound 500 µM) of the same compound?
A: 0.0144

Q: And the relative viability (LCLC-97TM1; first compound 5 µM)?
A: 0.166

Q: What about the relative viability (LCLC-97TM1; first compound 15.81 µM) of the same compound?
A: 0.208

Q: What about the relative viability (LCLC-97TM1; first compound 50 µM) of the same compound?
A: 0.176

Q: What about the relative viability (LCLC-97TM1; first compound 158.11 µM) of the same compound?
A: 0.162

Q: What about the relative viability (LCLC-97TM1; first compound 500 µM) of the same compound?
A: 0.0608

Q: What about the relative viability (LU99A; first compound 5 µM) of the same compound?
A: 0.179

Q: What about the relative viability (LU99A; first compound 15.81 µM) of the same compound?
A: 0.199

Q: And the relative viability (LU99A; first compound 50 µM)?
A: 0.179

Q: And the relative viability (LU99A; first compound 158.11 µM)?
A: 0.186

Q: What about the relative viability (LU99A; first compound 500 µM) of the same compound?
A: 0.183

Q: What about the relative viability (NCI-H1437; first compound 5 µM) of the same compound?
A: 0.328

Q: What about the relative viability (NCI-H1437; first compound 15.81 µM) of the same compound?
A: 0.295

Q: What about the relative viability (NCI-H1437; first compound 50 µM) of the same compound?
A: 0.301

Q: And the relative viability (NCI-H1437; first compound 158.11 µM)?
A: 0.0937

Q: What about the relative viability (NCI-H1437; first compound 500 µM) of the same compound?
A: 0.0871

Q: And the relative viability (NCI-H1792; first compound 5 µM)?
A: 0.744

Q: What about the relative viability (NCI-H1792; first compound 15.81 µM) of the same compound?
A: 0.63

Q: And the relative viability (NCI-H1792; first compound 50 µM)?
A: 0.636

Q: What about the relative viability (NCI-H1792; first compound 158.11 µM) of the same compound?
A: 0.109

Q: What about the relative viability (NCI-H1792; first compound 500 µM) of the same compound?
A: 0.0742

Q: And the relative viability (NCI-H1793; first compound 5 µM)?
A: 0.895

Q: What about the relative viability (NCI-H1793; first compound 15.81 µM) of the same compound?
A: 0.71

Q: What about the relative viability (NCI-H1793; first compound 50 µM) of the same compound?
A: 0.832

Q: And the relative viability (NCI-H1793; first compound 158.11 µM)?
A: 0.378

Q: What about the relative viability (NCI-H1793; first compound 500 µM) of the same compound?
A: 0.0257

Q: And the relative viability (NCI-H1915; first compound 5 µM)?
A: 0.415

Q: And the relative viability (NCI-H1915; first compound 15.81 µM)?
A: 0.513

Q: What about the relative viability (NCI-H1915; first compound 50 µM) of the same compound?
A: 0.458

Q: What about the relative viability (NCI-H1915; first compound 158.11 µM) of the same compound?
A: 0.409

Q: What about the relative viability (NCI-H1915; first compound 500 µM) of the same compound?
A: 0.0364

Q: What about the relative viability (NCI-H1944; first compound 5 µM) of the same compound?
A: 0.647

Q: And the relative viability (NCI-H1944; first compound 15.81 µM)?
A: 0.575

Q: And the relative viability (NCI-H1944; first compound 50 µM)?
A: 0.577

Q: What about the relative viability (NCI-H1944; first compound 158.11 µM) of the same compound?
A: 0.339

Q: And the relative viability (NCI-H1944; first compound 500 µM)?
A: 0.408

Q: And the relative viability (NCI-H2126; first compound 5 µM)?
A: 0.65

Q: And the relative viability (NCI-H2126; first compound 15.81 µM)?
A: 0.632

Q: What about the relative viability (NCI-H2126; first compound 50 µM) of the same compound?
A: 0.636

Q: And the relative viability (NCI-H2126; first compound 158.11 µM)?
A: 0.385

Q: What about the relative viability (NCI-H2126; first compound 500 µM) of the same compound?
A: 0.219

Q: And the relative viability (NCI-H23; first compound 5 µM)?
A: 0.673

Q: What about the relative viability (NCI-H23; first compound 15.81 µM) of the same compound?
A: 0.621

Q: What about the relative viability (NCI-H23; first compound 50 µM) of the same compound?
A: 0.544

Q: And the relative viability (NCI-H23; first compound 158.11 µM)?
A: 0.19

Q: What about the relative viability (NCI-H23; first compound 500 µM) of the same compound?
A: 0.0031

Q: What about the relative viability (NCI-H322M; first compound 5 µM) of the same compound?
A: 0.617

Q: What about the relative viability (NCI-H322M; first compound 15.81 µM) of the same compound?
A: 0.58

Q: What about the relative viability (NCI-H322M; first compound 50 µM) of the same compound?
A: 0.616

Q: And the relative viability (NCI-H322M; first compound 158.11 µM)?
A: 0.637

Q: What about the relative viability (NCI-H322M; first compound 500 µM) of the same compound?
A: 0.441

Q: And the relative viability (NCI-H441; first compound 5 µM)?
A: 0.266

Q: And the relative viability (NCI-H441; first compound 15.81 µM)?
A: 0.242

Q: And the relative viability (NCI-H441; first compound 50 µM)?
A: 0.236

Q: And the relative viability (NCI-H441; first compound 158.11 µM)?
A: 0.151

Q: What about the relative viability (NCI-H441; first compound 500 µM) of the same compound?
A: 0.0045

Q: And the relative viability (NCI-H460; first compound 5 µM)?
A: 0.0641

Q: What about the relative viability (NCI-H460; first compound 15.81 µM) of the same compound?
A: 0.0607

Q: What about the relative viability (NCI-H460; first compound 50 µM) of the same compound?
A: 0.0741

Q: What about the relative viability (NCI-H460; first compound 158.11 µM) of the same compound?
A: 0.0795

Q: And the relative viability (NCI-H460; first compound 500 µM)?
A: 0.0168

Q: And the relative viability (NCI-H661; first compound 5 µM)?
A: 0.887

Q: And the relative viability (NCI-H661; first compound 15.81 µM)?
A: 0.921

Q: And the relative viability (NCI-H661; first compound 50 µM)?
A: 0.863

Q: What about the relative viability (NCI-H661; first compound 158.11 µM) of the same compound?
A: 0.557

Q: And the relative viability (NCI-H661; first compound 500 µM)?
A: 0.131

Q: And the relative viability (PC-3 [JPC-3]; first compound 5 µM)?
A: 1.13

Q: What about the relative viability (PC-3 [JPC-3]; first compound 50 µM) of the same compound?
A: 1.11

Q: And the relative viability (PC-3 [JPC-3]; first compound 158.11 µM)?
A: 0.606

Q: And the relative viability (PC-3 [JPC-3]; first compound 500 µM)?
A: 0.362

Q: And the relative viability (SK-LU-1; first compound 5 µM)?
A: 0.958

Q: And the relative viability (SK-LU-1; first compound 15.81 µM)?
A: 0.88

Q: And the relative viability (SK-LU-1; first compound 50 µM)?
A: 0.87

Q: And the relative viability (SK-LU-1; first compound 158.11 µM)?
A: 0.22

Q: What about the relative viability (SK-LU-1; first compound 500 µM) of the same compound?
A: 0.0978
